According to PMC12586182 (Frontiers in Oncology, 2025):

Legend:
Assay in all cases: Cell viability assay (ATPlite)
Type in all cases: cell-based
[1] = test system: NCI-H2452; conditions: Homo sapiens; NCI-H2452 cell line, 72 hours incubation
Procedure, shortened: (§1)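 Cells grew 24 h, then received 9-point √10-fold compound series in duplicate (0.4% DMSO final) for 72 h. ATP content was read by ATPlite luminescence and normalized to vehicle controls as % viability. IC50 came from a four-parameter logistic fit; curves with F-value above 1.5 were invalidated, with IC50 then set at the top concentration.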

[2] = test system: A-388; conditions: Homo sapiens; A-388 cell line, 72 hours incubation
Procedure, shortened: as §1

[3] = test system: MG-63; conditions: Homo sapiens; MG-63 cell line, 72 hours incubation
Procedure, shortened: as §1

[4] = test system: BxPC-3; conditions: Homo sapiens; BxPC-3 cell line, 72 hours incubation
Procedure, shortened: as §1

[5] = test system: SUP-T1; conditions: Homo sapiens; SUP-T1 cell line, 72 hours incubation
Procedure, shortened: as §1

[6] = test system: SW982; conditions: Homo sapiens; SW982 cell line, 72 hours incubation
Procedure, shortened: as §1

[7] = test system: SW626; conditions: Homo sapiens; SW626 cell line, 72 hours incubation
Procedure, shortened: as §1

[8] = test system: JM-1; conditions: Homo sapiens, JM1; JM-1 cell line, 72 hours incubation
Procedure, shortened: as §1

[9] = test system: HT-29; conditions: Homo sapiens; HT-29 cell line, 72 hours incubation
Procedure, shortened: as §1

[10] = test system: U-87MG ATCC; conditions: Homo sapiens; U-87MG ATCC cell line, 72 hours incubation
Procedure, shortened: as §1

[11] = test system: MM1.R; conditions: Homo sapiens, MM.1R; MM1.R cell line, 72 hours incubation
Procedure, shortened: as §1

[12] = test system: HEC-1-B; conditions: Homo sapiens; HEC-1-B cell line, 72 hours incubation
Procedure, shortened: as §1

[13] = test system: L-82; conditions: Homo sapiens; L-82 cell line, 72 hours incubation
Procedure, shortened: as §1

[14] = test system: JAR; conditions: Homo sapiens; JAR cell line, 72 hours incubation
Procedure, shortened: as §1

[15] = test system: SK-N-MC; conditions: Homo sapiens; SK-N-MC cell line, 72 hours incubation
Procedure, shortened: as §1

[16] = test system: HCC4006; conditions: Homo sapiens; HCC4006 cell line, 72 hours incubation
Procedure, shortened: as §1

[17] = test system: MOLM-13; conditions: Homo sapiens; MOLM-13 cell line, 72 hours incubation
Procedure, shortened: as §1

[18] = test system: LC-2/ad; conditions: Homo sapiens; LC-2/ad cell line, 72 hours incubation
Procedure, shortened: as §1

[19] = test system: HCC827; conditions: Homo sapiens; HCC827 cell line, 72 hours incubation
Procedure, shortened: as §1

[20] = test system: SK-N-SH; conditions: Homo sapiens; SK-N-SH cell line, 72 hours incubation
Procedure, shortened: as §1

[21] = test system: Hs 766T; conditions: Homo sapiens, Hs766T; Hs 766T cell line, 72 hours incubation
Procedure, shortened: as §1

[22] = test system: NCI-H661; conditions: Homo sapiens; NCI-H661 cell line, 72 hours incubation
Procedure, shortened: as §1

[23] = test system: DEL; conditions: Homo sapiens; DEL cell line, 72 hours incubation
Procedure, shortened: as §1

[24] = test system: COLO 205; conditions: Homo sapiens; COLO 205 cell line, 72 hours incubation
Procedure, shortened: as §1

[25] = test system: G-361; conditions: Homo sapiens; G-361 cell line, 72 hours incubation
Procedure, shortened: as §1

[26] = test system: CCRF-HSB-2; conditions: Homo sapiens; CCRF-HSB-2 cell line, 72 hours incubation
Procedure, shortened: as §1

[27] = test system: TOV-21G; conditions: Homo sapiens, TOV21G; TOV-21G cell line, 72 hours incubation
Procedure, shortened: as §1

[28] = test system: Hs 852.T; conditions: Homo sapiens; Hs 852.T cell line, 72 hours incubation
Procedure, shortened: as §1

[29] = test system: SU-DHL-1; conditions: Homo sapiens; SU-DHL-1 cell line, 72 hours incubation
Procedure, shortened: as §1

[30] = test system: PFSK-1; conditions: Homo sapiens; PFSK-1 cell line, 72 hours incubation
Procedure, shortened: as §1

[31] = test system: MDA-MB-453; conditions: Homo sapiens; MDA-MB-453 cell line, 72 hours incubation
Procedure, shortened: as §1

Work on O=C(c1ccc(Oc2ccccc2)cc1Cl)c1c[nH]c2ncnc(N[C@@H]3CC[C@@H](CO)OC3)c12 [nemtabrutinib] yielded an IC50 [1] of 5.46 µM, an IC50 [2] of 5.33 µM and an IC50 [3] of 5.82 µM. It also gave an IC50 [4] of 2.61 µM, an IC50 [5] of 12.1 µM and an IC50 [6] of 10.7 µM. It also gave an IC50 [7] of 3.13 µM, an IC50 [8] of 23.8 µM and an IC50 [9] of 0.369 µM. It also gave an IC50 [10] of 12 µM, an IC50 [11] of 8.23 µM and an IC50 [12] of 0.376 µM. The IC50 [13] was 14 µM, the IC50 [14] was 18.1 µM and the IC50 [15] was 7.4 µM. It also gave an IC50 [16] of 6.17 µM, an IC50 [17] of 1 µM and an IC50 [18] of 1.26 µM. For the same compound, the IC50 [19] was 4.72 µM, the IC50 [20] was 3.43 µM and the IC50 [21] was 1.82 µM. For the same compound, the IC50 [22] was 2.38 µM, the IC50 [23] was 15.4 µM and the IC50 [24] was 0.654 µM. For the same compound, the IC50 [25] was 1.08 µM, the IC50 [26] was 0.37 µM and the IC50 [27] was 3.78 µM. It also gave an IC50 [28] of 4.02 µM, an IC50 [29] of 6.22 µM and an IC50 [30] of 11.3 µM. For the same compound, the IC50 [31] was 5.32 µM.
